Our source for the melting point values is patent US7459451B2, “Pyrazolopyridine derivatives” (Astellas Pharma Inc., priority 2004, dated 2008).

For the molecule `CCn1ncc2c(CC3CCCCC3)c(/C=C/C(=O)O)c(-c3ccccc3)nc21` [Example 206, (2E)-3-[4-(Cyclohexylmethyl)-1-ethyl-6-phenyl-1H-pyrazolo[3,4-b]pyridin-5-yl]acrylic acid], the melting point lay in the range of 201 to 202 °C. The figure for `CCn1ncc2c(-c3cncc(Br)c3)c(CCC(=O)O)c(C)nc21` [Example 93, 3-[4-(5-Bromo-3-pyridyl)-1-ethyl-6-methyl-1H-pyrazolo[3,4-b]pyridin-5-yl]propanoic acid] is 178 to 179.5 °C; for `CCn1ncc2c(-c3cncc(C)c3)c(CCC(=O)O)c(CC(C)C)nc21` [Example 344, 3-[1-Ethyl-6-isobutyl-4-(5-methyl-3-pyridyl)-1H-pyrazolo[3,4-b]pyridin-5-yl]propanoic acid] it is 190 to 191 °C; for `CCn1ncc2c(-c3cncc(C)c3)c(/C=C/C(=O)O)c(COC(C)C)nc21` [Example 240, (2E)-3-[1-Ethyl-6-(isopropoxymethyl)-4-(5-methyl-3-pyridyl)-1H-pyrazolo[3,4-b]pyridin-5-yl]acrylic acid] it is 198 to 199 °C. Molecule `CCn1ncc2c(-c3cncc(C)c3)c(C(=O)NCCOc3ccccc3)c(-c3ccccc3)nc21` [Example 246, 1-Ethyl-4-(5-methyl-3-pyridyl)-N-(2-phenoxyethyl)-6-phenyl-1H-pyrazolo[3,4-b]pyridine-5-carboxamide] came in with a melting point of 175 to 176 °C. The figure for `CCn1ncc2c(-c3cncc(Br)c3)c(/C=C/C(=O)O)c(COCC3CC3)nc21` [Example 88, (2E)-3-{4-(5-Bromo-3-pyridyl)-6-[(cyclopropylmethoxy)methyl]-1-ethyl-1H-pyrazolo[3,4-b]pyridin-5-yl}acrylic acid] is 183 to 184 °C; for `CCn1ncc2c(-c3cncc(C)c3)c(/C=C/C(=O)O)c(C3CCCCC3)nc21` [Example 190, (2E)-3-[6-Cyclohexyl-1-ethyl-4-(5-methyl-3-pyridyl)-1H-pyrazolo[3,4-b]pyridin-5-yl]acrylic acid] it is 255 to 257 °C; for `CCn1ncc2c(-c3ccc(Cl)s3)c(/C=C/C(=O)O)c(C(C)C)nc21` [Example 224, (2E)-3-[4-(5-Chloro-2-thienyl)-1-ethyl-6-isopropyl-1H-pyrazolo[3,4-b]pyridin-5-yl]acrylic acid] it is 163 to 165 °C. Next, `CCn1ncc2c(-c3ccc(Cl)nc3)c(/C=C/C(=O)O)c(-c3ccccc3)nc21` [Example 208, (2E)-3-[4-(6-Chloro-3-pyridyl)-1-ethyl-6-phenyl-1H-pyrazolo[3,4-b]pyridin-5-yl]acrylic acid]: 255 to 258 °C; `CCn1ncc2c(-c3cccc(Cl)c3)c(/C=C/C(=O)O)c(COC)nc21` [Example 191, (2E)-3-[4-(3-Chlorophenyl)-1-ethyl-6-(methoxymethyl)-1H-pyrazolo[3,4-b]pyridin-5-yl]acrylic acid]: 234 to 235 °C; `CCn1ncc2c(-c3cncc(C)c3)c(CCC(=O)O)c(COC)nc21` [Example 92, 3-[1-Ethyl-6-(methoxymethyl)-4-(5-methyl-3-pyridyl)-1H-pyrazolo[3,4-b]pyridin-5-yl]propanoic acid]: 154 to 155 °C. The molecule `CCn1ncc2c(-c3cncc(C)c3)c(CCC(=O)O)c(C3CCC3)nc21` [Example 230, 3-[6-cyclobutyl-1-ethyl-4-(5-methyl-3-pyridyl)-1H-pyrazolo[3,4-b]pyridin-5-yl]propanoic acid] showed a melting point of 212 to 213 °C. Next, `CCn1ncc2c(-c3cncc(C)c3)c(CCC(=O)O)c(-c3ocnc3C)nc21` [Example 79, 3-[1-ethyl-6-(4-methyl-1,3-oxazol-5-yl)-4-(5-methyl-3-pyridyl)-1H-pyrazolo[3,4-b]pyridin-5-yl]propanoic acid]: 184 to 185.5 °C. The figure for `CCn1ncc2c(-c3cncc(C)c3)c(/C=C/C(=O)O)c(CC(C)C)nc21` [Example 215, (2E)-3-[1-Ethyl-6-isobutyl-4-(5-methyl-3-pyridyl)-1H-pyrazolo[3,4-b]pyridin-5-yl]acrylic acid] is 212 to 213 °C. In turn, `CCn1ncc2c(-c3cncc(OC)c3)c(/C=C/C(=O)O)c(-c3ccccc3)nc21` [Example 218, (2E)-3-[1-Ethyl-4-(5-methoxy-3-pyridyl)-6-phenyl-1H-pyrazolo[3,4-b]pyridin-5-yl]acrylic acid] gave a melting point of 253 to 254 °C.

`CCn1ncc2c(-c3cncc(Cl)c3)c(/C=C/C(=O)O)c(C(C)C)nc21` [Example 228, (2E)-3-[4-(5-Chloro-3-pyridyl)-1-ethyl-6-isopropyl-1H-pyrazolo[3,4-b]pyridin-5-yl]acrylic acid]: the melting point was in the range of 218 to 220.5 °C.

In turn, `CCn1ncc2c(-c3cncc(C)c3)c(CCC(=O)O)c(COCC3CCCCC3)nc21` [Example 96, 3-[6-[(Cyclohexylmethoxy)methyl]-1-ethyl-4-(5-methyl-3-pyridyl)-1H-pyrazolo[3,4-b]pyridin-5-yl]propanoic acid] gave a melting point of 183 to 184 °C. Next, `CCn1ncc2c(-c3cncc(C)c3)c(C(=O)NC3Cc4ccccc4C3)c(-c3ccccc3)nc21` [Example 66, N-(2,3-Dihydro-1H-inden-2-yl)-1-ethyl-4-(5-methyl-3-pyridyl)-6-phenyl-1H-pyrazolo[3,4-b]pyridine-5-carboxamide]: 269 to 270 °C; `CCn1ncc2c(-c3cncc(C)c3)c(CCC(=O)O)c(CC(C)(C)C)nc21` [Example 349, 3-[6-(2,2-Dimethylpropyl)-1-ethyl-4-(5-methyl-3-pyridyl)-1H-pyrazolo[3,4-b]pyridin-5-yl]propanoic acid]: 221 to 223 °C.

The molecule `CCn1ncc2c(-c3cncc(Br)c3)c(/C=C/C(=O)O)c(C(C)C)nc21` [Example 225, (2E)-3-[4-(5-Bromo-3-pyridyl)-1-ethyl-6-isopropyl-1H-pyrazolo[3,4-b]pyridin-5-yl]acrylic acid] registered a melting point of 234 to 235 °C. The figure for `CCn1ncc2c(-c3cncc(C)c3)c(/C=C/C(=O)O)c(COC)nc21` [Example 82, (2E)-3-[1-ethyl-6-(methoxymethyl)-4-(5-methyl-3-pyridyl)-1H-pyrazolo[3,4-b]pyridin-5-yl]acrylic acid] is 195 to 196 °C; for `CCn1ncc2c(-c3ccnc(C)c3)c(CCC(=O)O)c(C(C)C)nc21` [Example 351, 3-[1-Ethyl-6-isopropyl-4-(2-methyl-4-pyridyl)-1H-pyrazolo[3,4-b]pyridin-5-yl]propanoic acid] it is 187 to 189 °C. Next, `CCC(CC)c1nc2c(cnn2CC)c(-c2cncc(C)c2)c1/C=C/C(=O)O` [Example 201, (2E)-3-[1-Ethyl-6-(1-ethylpropyl)-4-(5-methyl-3-pyridyl)-1H-pyrazolo[3,4-b]pyridin-5-yl]acrylic acid]: 197 to 199 °C; `CCn1ncc2c(-c3cncc(Cl)c3)c(/C=C/C(=O)O)c(-c3ccccc3)nc21` [Example 213, (2E)-3-[4-(5-Chloro-3-pyridyl)-1-ethyl-6-phenyl-1H-pyrazolo[3,4-b]pyridin-5-yl]acrylic acid]: 242 to 244 °C; `CCn1ncc2c(-c3cncc(Br)c3)c(C(=O)O)c(COC)nc21` [Example 86, 4-(5-Bromo-3-pyridyl)-1-ethyl-6-(methoxymethyl)-1H-pyrazolo[3,4-b]pyridine-5-carboxylic acid]: 162 to 163 °C.

`CCn1ncc2c(-c3cncc(C)c3)c(CCC(=O)O)c(CC3CC3)nc21` [Example 241, 3-[6-(Cyclopropylmethyl)-1-ethyl-4-(5-methyl-3-pyridyl)-1H-pyrazolo[3,4-b]pyridin-5-yl]propanoic acid] showed a melting point of 184 to 185 °C.
